pIC50: −log10 of the molar value. Bounds are passed on as bounds.

Experimental findings from patent US7312330B2, “Bicycloheteroarylamine compounds as ion channel ligands and uses thereof” (Renovis, Inc., priority 2003, dated 2007) are described below.

This assay concerns the target hVR1 (Homo sapiens, UniProt Q8NER1). Nature of the assay: Calcium imaging assay (Fura2) of VR1 antagonists, proton stimulation. As to conditions: HEK 293 cells expressing hVR1; for % Inhibition @ 1 μM: calcium ion influx induced by proton stimulation (pH 5.7); for pIC50: calcium ion influx induced by proton stimulation. The class given is cell-based. From the text:
VR1 protein is a heat-gated cation channel that exchanges about 10 calcium ions for every sodium ion resulting in neuronal membrane depolarization and elevated intracellular calcium ion levels. Therefore the functional activity of compounds at the VR1 receptor may be determined by measuring changes in intracellular calcium levels in 293 cells expressing capsaicin-insensitive VR1 receptor variants. A dual wavelength ratiometric dye, Fura2, was used as an indicator of relative levels of calcium ions in a 96 well format using a bench top scanning fluorometer with integrated fluidics and temperature control (Flex Station, Molecular Devices).
A dual wavelength ratiometric dye, Fura2, was used as an indicator of relative levels of [Ca2+] in a 96 well format using a bench top scanning fluorometer with integrated fluidics and temperature control (Flex Station, Molecular Devices).
HEK 293 cells expressing hVR1 were grown on PDL coated 96-well black-walled plates, in the presence of a DMEM medium containing 5% Penstrep, 5% Glutamax, 200 ug/mL Hygromycin, 5 μg/mL Blasticide and 10% heat inactivated FBS. Prior to assay, the cells were loaded with 5 μg/mL Fura2 in normal saline solution at 37° C. for 40 minutes. Cells were then washed with normal saline to remove the dye.
The assay consists of two stages; a pre-treatment phase followed by a treatment phase. In the pretreatment phase, 50 μl of a compound solution was added to the cells. Immediately following, 50 μl of the test compound in the presence of agonist (a saline solution plus 10 mM citric acid bufferd to pH 5.7 with HCl) was added. Fura2 was excited at […] to indicate relative calcium concentration. Changes in wavelength measurements were made throughout the course of the experiment in 4 second intervals over a period of 3 minutes. The fluorescence ratio from the excitations at […] was recorded for analysis. Responses were measured as peak fluorescence ratio after compound-agonist addition minus baseline fluorescence ratio prior to treatment and were calculated for each concentration tested using the SoftMaxPro software. Data was expressed as percentage inhibition calculated as follows: […]
A dose response curve was then determined, from which the ID50 of each compound was calculated.

hVR1, sequence (Q8NER1 whole entry): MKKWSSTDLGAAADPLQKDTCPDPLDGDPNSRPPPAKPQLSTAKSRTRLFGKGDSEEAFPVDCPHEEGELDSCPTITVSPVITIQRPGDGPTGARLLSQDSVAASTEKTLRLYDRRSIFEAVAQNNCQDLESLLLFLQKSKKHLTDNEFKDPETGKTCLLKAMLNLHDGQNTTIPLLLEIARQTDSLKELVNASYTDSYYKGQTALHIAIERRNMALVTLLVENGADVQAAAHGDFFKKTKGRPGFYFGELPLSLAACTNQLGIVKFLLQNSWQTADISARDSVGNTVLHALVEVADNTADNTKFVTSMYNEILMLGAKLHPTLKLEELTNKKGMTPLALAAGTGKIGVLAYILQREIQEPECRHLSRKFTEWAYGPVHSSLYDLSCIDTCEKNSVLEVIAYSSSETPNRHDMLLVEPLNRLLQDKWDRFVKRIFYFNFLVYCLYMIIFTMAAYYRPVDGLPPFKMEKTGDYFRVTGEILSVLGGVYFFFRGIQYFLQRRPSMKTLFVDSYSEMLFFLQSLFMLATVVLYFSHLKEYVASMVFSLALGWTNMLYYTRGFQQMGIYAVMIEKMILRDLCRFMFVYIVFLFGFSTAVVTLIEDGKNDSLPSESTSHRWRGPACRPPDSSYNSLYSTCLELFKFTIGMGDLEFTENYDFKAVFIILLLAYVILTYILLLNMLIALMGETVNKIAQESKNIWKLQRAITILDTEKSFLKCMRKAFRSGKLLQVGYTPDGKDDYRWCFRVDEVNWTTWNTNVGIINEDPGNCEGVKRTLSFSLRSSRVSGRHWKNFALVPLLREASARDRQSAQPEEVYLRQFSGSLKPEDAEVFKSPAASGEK

With `CC(C)(C)c1ccc(Nc2ncnc3c2CCN(c2ncccc2Cl)C3)cn1` [Example 49, N-(6-tert-Butylpyridin-3-yl)-7-(3-chloropyridin-2-yl)-5,6,7,8-tetrahydropyrido[3,4-d]pyrimidin-4-amine], the “% Inhibition @ 1 μM” value is “++++ (compound exhibited 76% or greater inhibition of calcium ion influx induced by proton stimulation)”. Turning to `FC(F)(F)c1cccc(CCNc2ncnc3c2CCN(c2ncccc2Cl)C3)c1` [Example 50, N-(3-(Trifluoromethyl)phenethyl)-7-(3-chloropyridin-2-yl)-5,6,7,8-tetrahydropyrido[3,4-d]pyrimidin-4-amine], the “% Inhibition @ 1 μM” value is reported as “+ (compound exhibited 0-25% inhibition of calcium ion influx induced by proton stimulation)”. For `Clc1cccnc1N1CCc2c(ncnc2NCCCc2ccccc2)C1` [Example 51, 7-(3-Chloropyridin-2-yl)-5,6,7,8-tetrahydro-N-(3-phenylpropyl)pyrido[3,4-d]pyrimidin-4-amine], the “% Inhibition @ 1 μM” value is listed as “+ (compound exhibited 0-25% inhibition of calcium ion influx induced by proton stimulation)”.

For `Clc1cccnc1N1CCc2c(ncnc2NCCOc2ccccc2)C1` [Example 52, 7-(3-Chloropyridin-2-yl)-5,6,7,8-tetrahydro-N-(2-phenoxyethyl)pyrido[3,4-d]pyrimidin-4-amine], the “% Inhibition @ 1 μM” value is given as “+ (compound exhibited 0-25% inhibition of calcium ion influx induced by proton stimulation)”. On to `CC(C)(C#N)c1ccc(Nc2ncnc3c2CCN(c2ncccc2Cl)C3)cc1` [Example 56, 2-(4-(7-(3-Chloropyridin-2-yl)-5,6,7,8-tetrahydropyrido[3,4-d]pyrimidin-4-ylamino)phenyl)-2-methylpropanenitrile], for which the “% Inhibition @ 1 μM” value is recorded as “++++ (compound exhibited 76% or greater inhibition of calcium ion influx induced by proton stimulation)” and the pIC50 (in general, the negative decadic logarithm of the IC50, by convention in mol/L) is more than 7.00. As for `Oc1nc2c(c(Nc3ccc(C(F)(F)F)cc3)n1)CCN(c1ncccc1Cl)C2` [Example 57, 4-(4-(Trifluoromethyl)phenylamino)-7-(3-chloropyridin-2-yl)-5,6,7,8-tetrahydropyrido[3,4-d]pyrimidin-2-ol], the “% Inhibition @ 1 μM” value is reported as “+ (compound exhibited 0-25% inhibition of calcium ion influx induced by proton stimulation)” and the pIC50 is less than 6.00.

Turning to `CC1(C)C(=O)NC(=O)c2cc(Nc3ncnc4c3CCN(c3ncccc3Cl)C4)ccc21` [Example 58, 7-(7-(3-Chloropyridin-2-yl)-5,6,7,8-tetrahydropyrido[3,4-d]pyrimidin-4-ylamino)-4,4-dimethylisoquinoline-1,3(2H,4H)-dione], the pIC50 was less than 6.00. Still for that read-out and setting: for `CC1(C)CCNc2cc(Nc3ncnc4c3CCN(c3ncccc3Cl)C4)ccc21` [Example 59, 7-(3-chloropyridin-2-yl)-5,6,7,8-tetrahydro-N-(1,2,3,4-tetrahydro-4,4-dimethylquinolin-7-yl)pyrido[3,4-d]pyrimidin-4-amine] the value was 6.30 to 7.00; for `CN1CCC(C)(C)c2ccc(Nc3ncnc4c3CCN(c3ncccc3Cl)C4)cc21` [Example 60, 7-(3-Chloropyridin-2-yl)-5,6,7,8-tetrahydro-N-(1,2,3,4-tetrahydro-1,4,4-trimethylquinolin-7-yl)pyrido[3,4-d]pyrimidin-4-amine], more than 7.00; for `CC(=O)N1Cc2cc(Nc3ncnc4c3CCN(c3ncccc3Cl)C4)ccc2C(C)(C)C1` [Example 61], less than 6.00. As for `CC1(C)CNCc2cc(Nc3ncnc4c3CCN(c3ncccc3Cl)C4)ccc21` [Example 62, 7-(3-chloropyridin-2-yl)-5,6,7,8-tetrahydro-N-(1,2,3,4-tetrahydro-4,4-dimethylisoquinolin-7-yl)pyrido[3,4-d]pyrimidin-4-amine], the pIC50 is less than 6.00. Take `CSc1nc2c(c(Nc3ccc(C(F)(F)F)cc3)n1)CCN(c1ncccc1S(C)(=O)=O)C2` [Example 63, N-(4-(Trifluoromethyl)phenyl)-5,6,7,8-tetrahydro-7-(3-(methylsulfonyl)pyridin-2-yl)-2-(methylthio)pyrido[3,4-d]pyrimidin-4-amine]: the “% Inhibition @ 1 μM” value is listed as “+++ (compound exhibited 51-75% inhibition of calcium ion influx induced by proton stimulation)” and the pIC50 is 6.30 to 7.00.

Turning to `CN1CCOc2cc(Nc3ncnc4c3CCN(c3ncccc3Cl)C4)ccc21` [Example 65, 7-(3-Chloropyridin-2-yl)-5,6,7,8-tetrahydro-N-(3,4-dihydro-4-methyl-2H-benzo[b][1,4]oxazin-7-yl)pyrido[3,4-d]pyrimidin-4-amine], the “% Inhibition @ 1 μM” value was “+++ (compound exhibited 51-75% inhibition of calcium ion influx induced by proton stimulation)” and the pIC50 was 6.30 to 7.00. Take `COC(=O)COc1nc2c(c(Nc3ccc(C(F)(F)F)cc3)n1)CCN(c1ncccc1Cl)C2` [Example 66, Methyl 2-(4-(4-(trifluoromethyl)phenylamino)-7-(3-chloropyridin-2-yl)-5,6,7,8-tetrahydropyrido[3,4-d]pyrimidin-2-yloxy)acetate]: the “% Inhibition @ 1 μM” value was “++++ (compound exhibited 76% or greater inhibition of calcium ion influx induced by proton stimulation)” and the pIC50 was more than 7.00. Turning to `CC1(C)C(=O)Nc2cc(Nc3ncnc4c3CCN(c3ncccc3Cl)C4)ccc21` [Example 67, 6-(7-(3-Chloropyridin-2-yl)-5,6,7,8-tetrahydropyrido[3,4-d]pyrimidin-4-ylamino)-3,3-dimethylindolin-2-one], the pIC50 is less than 6.00. With `CC(=O)N1CC(C)(C)c2ccc(Nc3ncnc4c3CCN(c3ncccc3Cl)C4)cc21` [Example 68, 1-(6-(7-(3-Chloropyridin-2-yl)-5,6,7,8-tetrahydropyrido[3,4-d]pyrimidin-4-ylamino)-3,3-dimethylindolin-1-yl)ethanone], the “% Inhibition @ 1 μM” value is “+++ (compound exhibited 51-75% inhibition of calcium ion influx induced by proton stimulation)” and the pIC50 was 6.00 to 6.30. For `CC1(C)CNc2cc(Nc3ncnc4c3CCN(c3ncccc3Cl)C4)ccc21` [Example 69, 7-(3-Chloropyridin-2-yl)-5,6,7,8-tetrahydro-N-(3,3-dimethylindolin-6-yl)pyrido[3,4-d]pyrimidin-4-amine], the “% Inhibition @ 1 μM” value is reported as “++++ (compound exhibited 76% or greater inhibition of calcium ion influx induced by proton stimulation)” and the pIC50 was 6.30 to 7.00. Consider `CN1CC(C)(C)c2ccc(Nc3ncnc4c3CCN(c3ncccc3Cl)C4)cc21` [Example 70, 7-(3-Chloropyridin-2-yl)-5,6,7,8-tetrahydro-N-(1,3,3-trimethylindolin-6-yl)pyrido[3,4-d]pyrimidin-4-amine], for which the “% Inhibition @ 1 μM” value was “++++ (compound exhibited 76% or greater inhibition of calcium ion influx induced by proton stimulation)” and the pIC50 was more than 7.00. In the case of `FC(F)(F)c1ccnc(N2CCc3c(ncnc3Nc3ccc4c(c3)OCCO4)C2)c1` [Example 71, 7-(4-(Trifluoromethyl)pyridin-2-yl)-5,6,7,8-tetrahydro-N-(2,3-dihydrobenzo[b][1,4]dioxin-7-yl)pyrido[3,4-d]pyrimidin-4-amine], the “% Inhibition @ 1 μM” value is listed as “+ (compound exhibited 0-25% inhibition of calcium ion influx induced by proton stimulation)” and the pIC50 is less than 6.00.
